From publication PMC10980263, “Cryo-EM structures of the human NaS1 and NaDC1 transporters revealed the elevator transport and allosteric regulation mechanism” (Science Advances, 2024)
Numbering of substitutions follows the chain as printed.

What was measured:
NaDC1 [1] = biological target: T1, NaDC1 (Homo sapiens, UniProt Q13183, S140A); assay: CD thermal melting at […] nm; assay type: binding; conditions: absolute Tm in presence of citrate, not a shift
T1 construct: gene SLC13A2; full length, homodimer; N-terminal FLAG purified from HEK293F (structures, natural variant I550V); GFP and FLAG tagged in HEK293T for currents
T1 sequence (Q13183 1-592 S140A): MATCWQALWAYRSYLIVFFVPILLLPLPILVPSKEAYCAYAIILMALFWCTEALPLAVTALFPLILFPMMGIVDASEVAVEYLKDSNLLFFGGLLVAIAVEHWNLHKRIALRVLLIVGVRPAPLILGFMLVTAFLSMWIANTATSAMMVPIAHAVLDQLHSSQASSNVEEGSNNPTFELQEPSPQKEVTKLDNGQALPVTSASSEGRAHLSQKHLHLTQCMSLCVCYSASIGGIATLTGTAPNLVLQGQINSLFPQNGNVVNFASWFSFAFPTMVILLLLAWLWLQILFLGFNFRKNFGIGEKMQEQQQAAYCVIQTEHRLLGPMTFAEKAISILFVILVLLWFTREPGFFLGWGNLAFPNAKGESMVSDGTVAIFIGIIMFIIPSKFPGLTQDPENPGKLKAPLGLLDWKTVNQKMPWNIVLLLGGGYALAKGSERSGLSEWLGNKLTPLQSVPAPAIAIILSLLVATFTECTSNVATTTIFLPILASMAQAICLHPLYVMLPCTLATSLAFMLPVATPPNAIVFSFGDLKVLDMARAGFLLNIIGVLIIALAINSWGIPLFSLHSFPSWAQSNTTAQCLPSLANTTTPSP

NaDC1 [2] = biological target: T2, NaDC1 (Homo sapiens, UniProt Q13183, N141A); assay: CD thermal melting at […] nm; assay type: binding; conditions: absolute Tm in presence of citrate, not a shift
T2 construct: gene SLC13A2; full length, homodimer; N-terminal FLAG purified from HEK293F (structures, natural variant I550V); GFP and FLAG tagged in HEK293T for currents
T2 sequence (Q13183 1-592 N141A): T1 sequence (Q13183 1-592 S140A) with A140S, N141A

NaDC1 [3] = biological target: T3, NaDC1 (Homo sapiens, UniProt Q13183, T142A); assay: CD thermal melting at […] nm; assay type: binding; conditions: absolute Tm in presence of citrate, not a shift
T3 construct: gene SLC13A2; full length, homodimer; N-terminal FLAG purified from HEK293F (structures, natural variant I550V); GFP and FLAG tagged in HEK293T for currents
T3 sequence (Q13183 1-592 T142A): T1 sequence (Q13183 1-592 S140A) with A140S, T142A

NaDC1 [4] = biological target: T4, NaDC1 (Homo sapiens, UniProt Q13183); assay: whole-cell patch clamp, transfected HEK293T; assay type: cell-based; design: gene SLC13A2; full length, homodimer; GFP and FLAG tagged in HEK293T for currents; conditions: gradient of citrate concentrations; 140 mM NaCl bath, pH 7.4
T4 sequence (Q13183 1-592): T1 sequence (Q13183 1-592 S140A) with A140S

NaDC1 [5] = biological target: T4, NaDC1; assay: CD thermal melting at […] nm; assay type: binding; design: gene SLC13A2; full length, homodimer; N-terminal FLAG purified from HEK293F (structures, natural variant I550V); GFP and FLAG tagged in HEK293T for currents; conditions: absolute Tm in presence of citrate, not a shift; whether WT carries I550V not stated

Work on O=C(O)CC(O)(CC(=O)O)C(=O)O [citrate] yielded a Tm (NaDC1 [1]) of 57.1 ± 0.7 °C, a Tm (NaDC1 [2]) of 61.3 ± 0.5 °C and a Tm (NaDC1 [3]) of 56.4 ± 0.3 °C. For the same compound, the “whole-cell patch clamp, transfected HEK293T” value (NaDC1 [4]) was “wild-type (WT) NaDC1 is indeed capable of transporting citrate” and the Tm (NaDC1 [5]) was 62.9 ± 0.3 °C.
